SMILES strings stand for the structures.

Data set [1] has as its target T1, Branched-chain-amino-acid aminotransferase, mitochondrial (Homo sapiens, UniProt O15382).
T1 sequence (O15382 whole entry): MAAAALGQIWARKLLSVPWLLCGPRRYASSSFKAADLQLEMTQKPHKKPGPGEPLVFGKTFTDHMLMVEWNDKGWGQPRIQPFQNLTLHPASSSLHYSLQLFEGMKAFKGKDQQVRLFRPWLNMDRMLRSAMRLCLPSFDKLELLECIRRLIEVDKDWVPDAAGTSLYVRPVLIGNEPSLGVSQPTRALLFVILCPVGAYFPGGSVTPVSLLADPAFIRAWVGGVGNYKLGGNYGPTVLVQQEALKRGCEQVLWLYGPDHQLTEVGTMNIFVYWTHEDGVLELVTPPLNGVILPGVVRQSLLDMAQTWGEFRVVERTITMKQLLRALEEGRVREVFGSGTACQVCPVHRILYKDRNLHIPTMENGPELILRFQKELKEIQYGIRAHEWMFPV
Briefly: Inhibition of human recombinant BCAT2 using leucine and alpha-KG as substrate in presence of NADH by fluorescence assay.

Data set [2] can be described thus: Apparent permeability of the compound from apical to basolateral side in human Caco-2 cells incubated for 2 hrs by LC-MS/MS analysis. The note with it: caco-2, 2 h.
Data set [3] is described as follows: Upregulation of BCAA expression in human MDA-MB-231 cells. In kind it is functional, cell-based.
Data set [4] can be described thus: Lipophilicity, logD of compound at pH 7.5. In kind it is physicochemical. The conditions noted are these: buffer.
Data set [5] can be described thus: Apparent permeability of the compound from basolateral to apical side in human Caco-2 cells incubated for 2 hrs by LC-MS/MS analysis. It counts as ADME, cell-based. The note with it: caco-2, 2 h.
Data set [6] is described as follows: Metabolic stability in human liver microsomes assessed as maximal oral bioavailability incubated upto 60 mins by LC-MS/MS analysis. It counts as ADME, Microsome.
Data set [7] is described as follows: Aqueous solubility of compound in PBS buffer at pH 6.5 incubated for 24 hrs by HPLC-UV analysis. It counts as physicochemical. The conditions noted are these: pH 6.5, 24 h.
Data set [8] in a line: Metabolic stability in Wistar Han rat hepatocyte assessed as blood clearance at 1 uM incubated upto 90 mins by LC-MS/MS analysis. The conditions noted are these: hepatocytes. In kind it is ADME, cell-based.
The nature of data set [9]: Metabolic stability in human liver microsomes assessed as blood clearance incubated upto 60 mins by LC-MS/MS analysis. It counts as ADME, Microsome.
For data set [10], the target named is T2, Branched-chain-amino-acid aminotransferase, cytosolic (Homo sapiens, UniProt P54687).
T2 sequence (P54687 whole entry): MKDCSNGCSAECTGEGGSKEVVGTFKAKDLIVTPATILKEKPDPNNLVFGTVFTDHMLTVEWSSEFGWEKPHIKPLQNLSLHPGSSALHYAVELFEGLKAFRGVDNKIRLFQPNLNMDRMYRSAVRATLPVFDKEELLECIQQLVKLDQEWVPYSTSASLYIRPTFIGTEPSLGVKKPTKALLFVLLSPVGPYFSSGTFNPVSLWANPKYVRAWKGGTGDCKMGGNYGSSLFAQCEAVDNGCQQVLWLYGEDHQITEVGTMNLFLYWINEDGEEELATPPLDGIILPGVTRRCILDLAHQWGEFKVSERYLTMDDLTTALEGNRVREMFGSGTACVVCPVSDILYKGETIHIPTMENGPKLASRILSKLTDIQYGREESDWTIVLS
Briefly: biochemical.
Description: Inhibition of N-terminal his-tagged human recombinant BCAT1 expressed in Escherichia coli BL21(DE3) cells using leucine and alpha-KG as substrate in presence of NADH by fluorescence assay

As for `N#Cc1cc(F)c(-n2c(=O)cc(C(F)(F)F)[nH]c2=O)cc1Oc1ccccc1`, in data set [1], the IC50 was determined as 13.4 µM.

On to `COc1cc(C#N)c(Oc2ccccc2C)cc1-n1c(=O)cc(C(N)=O)[nH]c1=O`, for which, in [2], the Papp was 11 nm/s.

`COc1cc(C#N)c(Oc2ccccc2C)cc1-n1c(=O)cc(-c2ccccc2)[nH]c1=O`: the Papp in data set [2] turned out to be 284 nm/s.

As to `CCCc1cc(=O)n2nc(NCc3c(F)cc(Cl)cc3F)c(C#N)c2[nH]1`, in data set [3], the IC50 amounted to 564 µM.

On to `COc1cc(C#N)c(Oc2ccccc2C)cc1-n1c(=O)cc(C(F)(F)Cl)[nH]c1=O`, for which the apparent permeability (Papp) in data set [2] was 30 nm/s.

With `COc1cc(C#N)c(Oc2ccccc2C)cc1-n1c(=O)cc(C(F)(F)C(F)(F)F)[nH]c1=O`, the Papp in [2] turned out to be 33 nm/s.

With `COc1cc(C#N)c(Oc2ccccc2C)cc1-n1c(=O)cc(C(F)(F)c2ccccc2)[nH]c1=O`, the Papp in data set [2] is listed as 329 nm/s.

As for `Cc1ccccc1Oc1cc(-n2c(=O)cc(C(F)(F)F)[nH]c2=O)c(C)cc1C#N`, the Papp in data set [2] is reported as 48 nm/s.

On to `Cc1ccccc1Oc1cc(-n2c(=O)cc(C(F)(F)F)[nH]c2=O)c2ccccc2c1` [BAY-771], for which, in data set [4], the log distribution coefficient (logD) is given as 2.2. Further, the Papp in [5] turned out to be 171 nm/s; in [2], 275 nm/s. In data set [6], the Fh at 1 h was 40%. Moreover, in data set [7], the solubility is reported as above 412 mg/L. Also, in data set [8], the CLhep predicted at […], 1 µM is 41.7 mL/min/kg. In addition, in data set [9], the CLhep predicted is 13.2 mL/min/kg.

Regarding `COc1cc(C#N)c(Oc2ccccc2C)cc1-n1c(=O)cc(S(=O)(=O)c2ccccc2)[nH]c1=O`, in [2], the Papp came to 0.5 nm/s.

As for `COc1cc(OC)c(-n2c(=O)cc(C(F)(F)F)[nH]c2=O)cc1Cl`, the IC50 stood at 20 µM in data set [1] and 3300 nM in data set [10].

Consider `COc1cc(C#N)c(Oc2ccccc2C)cc1-n1c(=O)cc(C(F)(F)F)[nH]c1=O`, for which, in data set [2], the Papp is on record as 23 nm/s.

Turning to `CNC(=O)c1ccn2c(-n3c(=O)cc(C(F)(F)F)[nH]c3=O)c(-c3ccccn3)nc2c1`, in data set [10], inhibition was half-maximal at 850 nM (IC50).

Turning to `Cc1ccccc1Oc1cc(-n2c(=O)cc(C(F)(F)F)[nH]c2=O)c(F)cc1C#N`, the IC50 in data set [1] was found to be 13.3 µM.

`COc1cc(C#N)c(Oc2ccccc2C)cc1-n1c(=O)cc(Br)[nH]c1=O`: the apparent permeability (Papp) in [2] is 71 nm/s.

Regarding `COc1cc(C#N)c(Oc2ccccc2C)cc1-n1c(=O)cc(S(C)(=O)=O)[nH]c1=O`, the Papp in data set [2] amounted to 29 nm/s.

For `COc1cc(Cl)c(Oc2ccccc2C)cc1-n1c(=O)cc(C(F)(F)F)[nH]c1=O`, the Papp in data set [2] is on record as 199 nm/s.

The values are drawn from ChEMBL document CHEMBL5214979 (J Med Chem, 2022).
